{
  "source": "BindingDB's records for PubMed 27607900",
  "about": "(Cardiff University, 2016)",
  "key": {"Enterococcus faecalis": {"system": "Enterococcus faecalis", "experiment": "Antimicrobial activity against Enterococcus faecalis ATCC 29212 assessed as microbial growth inhibition"}, "[1]": {"experiment": "Inhibition of ACT (unknown origin)"}},
  "data": [
    {"smiles": "CCCC(C)CC(C)CC(C)/C=C(C)/C=C/C(O)C(C)C(=O)OC1C(O)CN2CC1NC[C@H]1O[C@@H](OC([C@H]3O[C@@H](n4ccc(=O)[nH]c4=O)[C@H](O)[C@@H]3OS(=O)(=O)O)C2C(=O)O)[C@H](O)[C@@H]1O", "note": "(some centres not stated)", "values": [
      {"measurement": "IC50", "setting": "Enterococcus faecalis", "result": 0.012, "unit": "µM"}
    ]},
    {"smiles": "CC(C)OC(=O)[C@H](Cc1ccccc1)NP(=O)(N[C@@H](Cc1ccccc1)C(=O)OC(C)C)OCOCCn1cnc2c(N)nc(F)nc21", "values": [
      {"measurement": "IC50", "setting": "[1]", "result": 0.145, "unit": "µM"}
    ]}
  ]
}
